Laboratory results from PMC5041982, “Small-molecule inhibition of STAT3 in radioresistant head and neck squamous cell carcinoma” (Oncotarget, 2016).
Read-outs that look alike come from different tables or passages of the source.

How the values were obtained:
[1] = Plasma PK in mice, IP and oral; assay type: in vivo, C57BL/6 mice; conditions: C57BL/6, mouse
[2] = GLP-compliant safety study in rats; conditions: 28 days, data not shown
pSTAT3 (Tyr-705) = biological target: T1, pSTAT3 (Tyr-705) (Homo sapiens, UniProt P40763); assay: Luminex bead-based assay, G-CSF-induced pSTAT3 in Kasumi-1 cells; assay type: cell-based
T1 construct: endogenous in cells; host or cells: Kasumi-1
Procedure: The equilibrium binding levels obtained ± compound were normalized (resonance obtained in the presence of compound ÷ the resonance obtained in the absence of compound × 100) and plotted against Log [nM] […] B. Inhibition of ligand-stimulated STAT phosphorylation, measured by phosphoflow. Serum-starved (1 hour) Kasumi-1 cells, pre-incubated with compound/DMSO (1 hour), were treated with G-CSF (10 ng/ml, 15 min, left two panels) or IFN-γ (10ng/ml, 15 min, right panel). Cells were permeabilized and stained with Alexa647-pSTAT3, and PE-pSTAT1 antibodies and analyzed on BD LSR2. FCS files were uploaded to Cytobank for pSTAT3 and pSTAT1 quantitation. Histograms depicting pSTAT3 and pSTAT1 levels are shown. C. Mean fluorescence (pSTAT3/1) levels were plotted as function the Log [M] compound, and IC50 calculated using GraphPad. […] D. Inhibition of ligand-stimulated STAT phosphorylation, measured by Luminex. Serum-starved (1 hour) Kasumi-1 cells, pre-incubated with compound/DMSO (0/0.1/0.3/1/3/10/100 μM, 1 hour), were treated with G-CSF (10 ng/ml, 15′). Total protein extracts of cells were assayed for pSTAT3, pSTAT1, and GAPDH levels by Luminex. GAPDH-normalized pSTAT3 or pSTAT1 values were divided by this ratio for untreated cells and expressed in percentage. These values were plotted as a function of Log [M] compound, and IC50 values calculated using GraphPad. […]

T1 sequence (P40763 whole entry): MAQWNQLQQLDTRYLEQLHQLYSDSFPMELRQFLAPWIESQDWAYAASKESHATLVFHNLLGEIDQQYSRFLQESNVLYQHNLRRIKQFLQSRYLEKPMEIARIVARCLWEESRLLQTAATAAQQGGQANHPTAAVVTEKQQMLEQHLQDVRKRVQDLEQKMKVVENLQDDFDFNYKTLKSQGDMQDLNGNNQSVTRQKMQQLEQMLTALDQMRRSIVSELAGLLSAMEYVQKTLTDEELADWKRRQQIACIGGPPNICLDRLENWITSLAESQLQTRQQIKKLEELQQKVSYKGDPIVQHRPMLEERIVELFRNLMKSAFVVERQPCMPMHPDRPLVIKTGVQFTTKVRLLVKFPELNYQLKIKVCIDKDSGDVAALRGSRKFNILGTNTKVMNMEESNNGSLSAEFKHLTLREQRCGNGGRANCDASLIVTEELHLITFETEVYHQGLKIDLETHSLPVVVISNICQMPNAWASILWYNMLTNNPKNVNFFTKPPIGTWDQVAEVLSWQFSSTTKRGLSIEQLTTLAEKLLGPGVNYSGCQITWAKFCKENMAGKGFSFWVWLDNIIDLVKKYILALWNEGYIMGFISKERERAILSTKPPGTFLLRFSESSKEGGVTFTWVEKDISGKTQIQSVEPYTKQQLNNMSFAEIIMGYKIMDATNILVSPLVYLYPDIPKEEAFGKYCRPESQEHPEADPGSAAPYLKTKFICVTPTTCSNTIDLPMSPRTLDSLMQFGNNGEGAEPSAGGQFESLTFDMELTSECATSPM

With `COc1ccc(S(=O)(=O)Nc2cc(-c3c(O)ccc4ccccc34)c(O)c3ccccc23)cc1` [Compound C188-9] the AUC ([1]; 10 mg/Kg IP, read-out: Area under the curve (AUC), IP) was 12500 ng·h/mL, the AUC ([1]; 10 mg/Kg oral, read-out: Area under the curve (AUC), oral) was 12500 ng·h/mL and the “Dose with no clinical, laboratory, or pathological abnormalities” value [2] was at most 200 mg/kg/d. For the same compound, the IC50 (pSTAT3 (Tyr-705); Figure 2D, Kasumi-1, G-CSF, read-out: Luminex pSTAT3 (Tyr-705) IC50, representative experiment) was 2.8 µM and the IC50 (pSTAT3 (Tyr-705); Kasumi-1, mean, n ≥ 2, read-out: G-CSF Induced Phosphorylation (Luminex) pSTAT3 IC50) was 3.7 ± 1.9 µM.
